# Where “and” joins values, the source holds several entries; their conditions need not be identical. Equal values may be shown once.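 Assay format: 96-well plates, 48-hour exposure. Here, GI50 denotes the concentration required for 50% inhibition of growth. TGI marks complete inhibition of growth.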
# Experiments:
# Assay in all cases: inhibition of tumour cell growth, NCI panel, 48 h
# [1] = tested on: NCI-H522 lung
# [2] = tested on: A549 NSCLC
# [3] = tested on: SN12C renal
# [4] = tested on: SK-MEL-28 melanoma
# [5] = tested on: SK-MEL-2 melanoma
# [6] = tested on: IGROV1 ovarian
# [7] = tested on: SF-268 CNS
# [8] = tested on: SNB-19 CNS
# [9] = tested on: UO-31 renal
# [10] = tested on: M14 melanoma
SMILES,TGI [1],TGI [2],TGI [3],TGI [4],TGI [5] [µM],TGI [6],TGI [7] [µM],TGI [8],TGI [9] [µM],TGI [10],GI50 [1] [µM],GI50 [3] [µM],GI50 [4],GI50 [5],GI50 [6],GI50 [7] [µM],GI50 [8],GI50 [9] [µM],GI50 [10] [µM],GI50 [2] [µM]
OC1C=C2C3CN(Cc4cc5c(cc43)OCO5)[C@H]2C[C@@H]1O (stereo partly drawn),> 100 µM,> 100 µM,> 100 µM,> 100 µM,11.9,> 100 µM,> 100,76.1 µM,71.4,25 µM,,,,,,,,,,
O=C1CCC(NC(=O)Cc2ccc(O)cc2)C(=O)N1 (stereo not drawn),> 2500 µM,> 2500 µM,> 2500 µM,> 2500 µM,,> 2500 µM,> 2500,> 2500 µM,> 2500,> 2500 µM,,,,,,,,,,
O=C(O)C(Cc1ccccc1)N1C(=O)c2ccccc2C1=O (stereo not drawn),> 100 µM,> 100 µM,> 100 µM,30.4 µM,> 100,> 100 µM,> 100,> 100 µM,> 100,> 100 µM,,,,,,,,,,
N=C(N)C(N=Nc1ccccc1)C(=N)N (stereo not drawn),> 100 µM,> 100 µM,> 100 µM,> 100 µM,91.9,> 100 µM,> 100,> 100 µM,> 100,> 100 µM,,,,,,,,,,
O=C1CC(N2C(=O)/C(=C/C(Cl)=C\c3ccc([N+](=O)[O-])cc3)SC2=S)C(=O)N1c1ccc(Cl)cc1 (stereo not drawn),4.36 µM,,11.1 µM,4.02 µM,32.1,3.26 µM,> 100,2.97 µM,3.3,5.06 µM,1.73,1.69,1.71 µM,3.12 µM,1.03 µM,3.07,1.17 µM,1.07,2.11,
N#CCc1[nH]nc2nc(SCc3ccccc3)nc(N3CCCCC3)c12,37.9 µM,34.5 µM,28.7 µM,45.8 µM,39.3,,36.7,34.8 µM,35.9,34.8 µM,,,,,,,,,,
CCn1cc(C(=O)O)c(=O)c2cc(F)c(N3CCN(Cn4c(O)c(N=NC(=O)c5ccncc5)c5cc(Cl)ccc54)CC3)cc21,63.6 µM,> 100 µM,> 100 µM,> 100 µM,60.9,61.6 µM,> 100,> 100 µM,> 100,> 100 µM,,,,,,,,,,
O=C1c2ccccc2-c2ccc(O)cc21,32.9 µM,88 µM,36.9 µM,45.8 µM,46.5,35.9 µM,47.2,48.7 µM,32.1,72.7 µM,,,,,,,,,,
C=C1C(C2(C)C=CC(=O)OC3(C)COC(=O)CC32)C(OC=O)C(OC(=O)C(O)C(C)CC)C2(C)C(c3ccoc3)CC(OC(C)=O)C12O (stereo not drawn),> 100 µM,> 100 µM,> 100 µM,> 100 µM,> 100,> 100 µM,> 100,> 100 µM,> 100,> 100 µM,,,,,,,,,,
O=c1c2c([nH]c3nccn13)CCCC2,> 10 µM,> 10 µM,> 10 µM,> 10 µM,> 10,> 10 µM,> 10,> 10 µM,> 10,> 10 µM,,,,,,,,,,
CC(=O)C1=C(O)C2(O)C(=O)c3c(c(C)c4ccc(C)c(O)c4c3O)CC2C(N)C1=O (stereo not drawn),> 29.5 µM,11.5 µM,9.79 µM,13.3 µM,> 21,13 µM,13.6,23.9 µM,11.1,23.1 µM,,,,,,,,,,
CCC(C)C(NC(=O)C(CCCCN)NC(=O)C(NC(=O)C(CCC(N)=O)NC(=O)C(CCCNC(=N)N)NC(C)=O)C(C)CC)C(=O)NC(Cc1c[nH]c2ccccc12)C(=O)NC(Cc1ccccc1)C(=O)NC(CCC(N)=O)C(=O)NC(CC(N)=O)C(=O)NC(CCCNC(=N)N)C(=O)NC(CCCNC(=N)N)C(=O)NC(CCSC)C(=O)NC(CCCCN)C(=O)NC(Cc1c[nH]c2ccccc12)C(=O)NC(CCCCN)C(=O)NC(CCCCN)C(N)=O (stereo not drawn),> 50 µM,> 50 µM,> 50 µM,> 50 µM,> 50,> 50 µM,> 50,> 50 µM,,> 50 µM,,,,,,,,,,
O=C(NN1C(=O)/C(=C/c2ccc(Cl)cc2)N=C1c1ccccc1)c1c(Cl)c(Cl)c(Cl)c(Cl)c1-c1nc2ccccc2[nH]1,83.4 µM,> 100 µM,86.4 µM,> 100 µM,61.7,> 100 µM,62.5,> 100 µM,> 100,68.8 µM,,,,,,,,,,
Cc1c(Cl)c(=O)oc2cc(OCC(=O)c3ccccc3)ccc12,> 100 µM,> 100 µM,> 100 µM,> 100 µM,> 100,> 100 µM,> 100,> 100 µM,> 100,> 100 µM,,,,,,,,,,
C[N+]1(C)C2CCC1CC(OC(=O)C(CO)c1ccccc1)C2 (stereo not drawn),> 100 µM,> 100 µM,> 100 µM,> 100 µM,> 100,> 100 µM,> 100,> 100 µM,> 100,> 100 µM,,,,,,,,,,
O=C1OC(c2ccccc2)=N/C1=C/c1cccs1,,> 100 µM,,> 100 µM,> 100,> 100 µM,> 100,> 100 µM,,> 100 µM,,,,,,,,,,
Cc1nc(Cl)c(C)c(Cl)n1,,> 100 µM,> 100 µM,> 100 µM,> 100,34.5 µM,> 100,> 100 µM,,> 100 µM,,,,,,,,,,
CC(=O)C1(c2ccccc2)CCCN(C)CC1 (stereo not drawn),,,,> 100 µM,> 100,> 100 µM,,> 100 µM,> 100,> 100 µM,,,,,,,,,,
Cc1c(N)nc([C@H](CC(N)=O)NC[C@H](N)C(N)=O)nc1C(=O)N[C@H](C(=O)N[C@H](C)[C@@H](O)[C@H](C)C(=O)N[C@H](C(=O)NCCc1nc(-c2nc(C(=O)NCCC[S+](C)C)cs2)cs1)[C@@H](C)O)C(OC1OC(CO)C(O)C(O)C1OC1OC(CO)C(O)C(OC(N)=O)C1O)c1cnc[nH]1 (stereo partly drawn),,,13.2 µM [middle of 4 runs],25 µM and > 29 µM and > 100 µM,,22.9 µM and 29 µM and 33.6 µM,,23 µM and 25 µM and > 100 µM,,,,,> 29 µM and 28.1 µM,,6.89 µM and 1.22 µM,,2.72 µM and 2.89 µM,,,
O=C1CC(n2cccc2)c2cc(Br)sc21 (stereo not drawn),75.5 µM,> 100 µM,> 100 µM,> 100 µM,> 100,> 100 µM,> 100,> 100 µM,> 100,> 100 µM,,,,,,,,,,
CN1CCC23c4ccccc4NC1C21CCN(C)C3Nc2ccccc21,> 375 µM,> 375 µM,> 375 µM,> 375 µM,> 375,> 375 µM,,> 375 µM,> 375,,,,,,,,,,,
Cc1c2c(cc3c1[nH]c1ccccc13)C(c1ccc(F)cc1)=NCC2,3.85 µM,6.47 µM,6.4 µM,4.74 µM,3.28,3.73 µM,19.6,6.94 µM,4.08,,,,,,,,,,,
OC(c1ccc(-c2ccccc2)cc1)(c1ccc(-c2ccccc2)cc1)c1ccc(-c2ccccc2)cc1,> 100 µM,> 100 µM,> 100 µM,> 100 µM,,> 100 µM,> 100,> 100 µM,> 100,> 100 µM,,,,,,,,,,
CCCCC1Cc2cc(OC)ccc2-c2nc3cc(OC)ccc3n21 (stereo not drawn) (tested in a mixture with another compound),21.1 µM,27.9 µM,27.9 µM,,,23.1 µM,33.5,21.5 µM,24.7,28.2 µM,,,,,,,,,,
COC1(OC)C[C@H](C)[C@@]23O[C@]24c2cc(O)c5c(c2N[C@H]3C#C/C=C\C#C[C@]14O)C(=O)c1ccccc1C5=O,0.0664 µM and 0.0606 µM,0.0489 µM and 0.0352 µM,0.00979 µM,0.234 µM and 0.087 µM,0.355,0.16 µM,,0.225 µM,0.0176,0.0176 µM and 0.0111 µM,0.0088,,0.0273 µM,0.359 µM and 0.0593 µM,,0.00193,,,0.00194,< 0.001
C=CCOCCCC(=O)C(=[N+]=[N-])C(=O)OC,> 100 µM,> 100 µM,> 100 µM,> 100 µM,> 100,> 100 µM,> 100,> 100 µM,> 100,> 100 µM,,,,,,,,,,
O=C1c2scnc2-c2nccc3c2c1nc1ccccc13,> 100 µM,4.87 µM,4.23 µM,2.56 µM,4.34,> 100 µM,> 100,,2.74,,,,,,,,,,,
Cc1cc(C)n(C(=O)C(C)Sc2nnc(SC(C)C(=O)n3nc(C)cc3C)s2)n1 (stereo not drawn),,> 100 µM,,> 100 µM,> 100,> 100 µM,> 100,> 100 µM,> 100,> 100 µM,,,,,,,,,,

# Reference: PubChem BioAssay (NCI)
